Several values for one entry are separate records, joined by “and”; a condition that tells them apart may be missing. Identical values can stand only once.
Conditions: Fluid (supercritical or subcritical phases), Buoyancy - hydrostatic balance with magnetic suspension - two sinkers

CCC [propane]
Conditions	mass density
380 K, 4703.9 kPa	148.078 kg/m3 [middle of 5 runs]
380 K, 4705.6 kPa	148.36 kg/m3 [middle of 4 runs]
380 K, 4705.7 kPa	148.363 kg/m3
380 K, 4755.7 kPa	155.492 kg/m3 [middle of 5 runs]
380 K, 4879.5 kPa	178.216 kg/m3 and 178.213 kg/m3
380 K, 4879.6 kPa	178.236 kg/m3 and 178.204 kg/m3 and 178.214 kg/m3
380 K, 4957.6 kPa	197.127 kg/m3
380 K, 4957.7 kPa	197.117 kg/m3 and 197.11 kg/m3
380 K, 4957.8 kPa	197.115 kg/m3 [middle of 4 runs]
380 K, 4957.9 kPa	197.119 kg/m3
380 K, 5001.3 kPa	208.689 kg/m3
380 K, 5001.5 kPa	208.739 kg/m3
380 K, 5002.2 kPa	208.955 kg/m3 and 208.946 kg/m3 and 208.942 kg/m3
380 K, 5002.3 kPa	208.948 kg/m3 and 208.946 kg/m3
380 K, 5041.6 kPa	219.674 kg/m3 and 219.68 kg/m3 and 219.675 kg/m3
380 K, 5041.7 kPa	219.681 kg/m3 [middle of 4 runs]
380 K, 5067.9 kPa	226.412 kg/m3 and 226.42 kg/m3
380 K, 5068 kPa	226.427 kg/m3
380 K, 5068.1 kPa	226.418 kg/m3
380 K, 5141.5 kPa	243.559 kg/m3 and 243.562 kg/m3 and 243.564 kg/m3
380 K, 5141.6 kPa	243.563 kg/m3 [middle of 5 runs]
380 K, 5268.6 kPa	264.989 kg/m3 and 264.991 kg/m3
380 K, 5268.8 kPa	264.985 kg/m3 and 264.995 kg/m3
380 K, 5408.3 kPa	280.991 kg/m3 [middle of 4 runs]
380 K, 5408.4 kPa	280.991 kg/m3 and 280.992 kg/m3 and 280.986 kg/m3
380 K, 6684.1 kPa	336.97 kg/m3 and 336.962 kg/m3
380 K, 6684.2 kPa	336.972 kg/m3
380 K, 6684.3 kPa	336.974 kg/m3 and 336.97 kg/m3
380 K, 6684.4 kPa	336.974 kg/m3
380 K, 7975.3 kPa	360.582 kg/m3
380 K, 7975.4 kPa	360.58 kg/m3
380 K, 7975.5 kPa	360.582 kg/m3 [middle of 6 runs]
380 K, 7975.6 kPa	360.58 kg/m3 and 360.581 kg/m3
380 K, 7975.7 kPa	360.586 kg/m3
380 K, 7975.8 kPa	360.584 kg/m3 and 360.583 kg/m3
380 K, 10919 kPa	391.154 kg/m3 [middle of 4 runs]
380 K, 10920 kPa	391.156 kg/m3 and 391.155 kg/m3
380 K, 11880 kPa	398.187 kg/m3 and 398.185 kg/m3
380 K, 11881 kPa	398.189 kg/m3 and 398.186 kg/m3
380 K, 15945 kPa	420.987 kg/m3 and 420.99 kg/m3
380 K, 15946 kPa	420.986 kg/m3
380 K, 19820 kPa	436.807 kg/m3 and 436.806 kg/m3
380 K, 19821 kPa	436.811 kg/m3 and 436.808 kg/m3 and 436.81 kg/m3
380 K, 23098 kPa	447.702 kg/m3 [middle of 5 runs]
380 K, 23099 kPa	447.703 kg/m3 and 447.702 kg/m3
380 K, 23697 kPa	449.488 kg/m3 and 449.487 kg/m3 and 449.489 kg/m3
380 K, 29645 kPa	465.242 kg/m3 and 465.241 kg/m3
380 K, 29646 kPa	465.242 kg/m3 and 465.241 kg/m3
380 K, 34344 kPa	475.596 kg/m3 [middle of 4 runs]
380 K, 34345 kPa	475.597 kg/m3
380.01 K, 954.8 kPa	14.3809 kg/m3
380.01 K, 954.81 kPa	14.381 kg/m3
380.01 K, 3513.7 kPa	73.3411 kg/m3
380.01 K, 5268.9 kPa	264.989 kg/m3
380.01 K, 6684.6 kPa	336.973 kg/m3
380.01 K, 6684.7 kPa	336.971 kg/m3
400 K, 336.43 kPa	4.5554 kg/m3 and 4.5553 kg/m3
400 K, 599.95 kPa	8.2683 kg/m3
400 K, 599.96 kPa	8.2685 kg/m3 and 8.2684 kg/m3
400 K, 956.18 kPa	13.5094 kg/m3
400 K, 957.16 kPa	13.5243 kg/m3
400 K, 957.89 kPa	13.5351 kg/m3
400 K, 959.04 kPa	13.5529 kg/m3
400 K, 962.98 kPa	13.6116 kg/m3
400 K, 1542.1 kPa	22.7724 kg/m3
400 K, 1542.2 kPa	22.7738 kg/m3 and 22.7745 kg/m3
400 K, 1542.3 kPa	22.7764 kg/m3
400 K, 1542.4 kPa	22.7771 kg/m3
400 K, 2380.3 kPa	37.7472 kg/m3 and 37.7486 kg/m3 and 37.7481 kg/m3
400 K, 2380.5 kPa	37.7508 kg/m3 and 37.7503 kg/m3
400 K, 3308.6 kPa	57.6872 kg/m3 [middle of 5 runs]
400 K, 3901.8 kPa	73.2165 kg/m3 [middle of 4 runs]
400 K, 3901.9 kPa	73.2188 kg/m3
400 K, 3902 kPa	73.2191 kg/m3
400 K, 4691.9 kPa	99.4254 kg/m3 and 99.4238 kg/m3 and 99.4251 kg/m3
400 K, 4692 kPa	99.4292 kg/m3 and 99.4262 kg/m3
400 K, 5668.4 kPa	147.912 kg/m3
400 K, 5668.5 kPa	147.917 kg/m3 [middle of 6 runs]
400 K, 5673.1 kPa	148.232 kg/m3
400 K, 5673.2 kPa	148.239 kg/m3 and 148.234 kg/m3 and 148.236 kg/m3
400 K, 5673.3 kPa	148.236 kg/m3
400 K, 5676.5 kPa	148.439 kg/m3 and 148.438 kg/m3
400 K, 5676.6 kPa	148.445 kg/m3 and 148.444 kg/m3 and 148.437 kg/m3
400 K, 5676.7 kPa	148.447 kg/m3 [middle of 8 runs]
400 K, 5676.8 kPa	148.451 kg/m3 [middle of 9 runs]
400 K, 5676.9 kPa	148.458 kg/m3 [middle of 6 runs]
400 K, 5677 kPa	148.462 kg/m3 [middle of 5 runs]
400 K, 5677.1 kPa	148.464 kg/m3 and 148.466 kg/m3
400 K, 5677.2 kPa	148.477 kg/m3 and 148.472 kg/m3
400 K, 5677.4 kPa	148.487 kg/m3 and 148.49 kg/m3
400 K, 5677.9 kPa	148.509 kg/m3
400 K, 5678 kPa	148.518 kg/m3 and 148.516 kg/m3 and 148.517 kg/m3
400 K, 5678.1 kPa	148.519 kg/m3 and 148.526 kg/m3 and 148.518 kg/m3
400 K, 5678.2 kPa	148.528 kg/m3 [middle of 13 runs]
400 K, 5678.3 kPa	148.528 kg/m3 and 148.529 kg/m3
400 K, 5781.6 kPa	155.313 kg/m3 and 155.311 kg/m3
400 K, 5781.7 kPa	155.314 kg/m3 and 155.311 kg/m3
400 K, 6338.3 kPa	196.876 kg/m3 and 196.877 kg/m3
400 K, 6338.4 kPa	196.877 kg/m3 [middle of 5 runs]
400 K, 6338.5 kPa	196.877 kg/m3
400 K, 6630.2 kPa	219.389 kg/m3
400 K, 6630.3 kPa	219.386 kg/m3 and 219.389 kg/m3
400 K, 6630.4 kPa	219.389 kg/m3 [middle of 4 runs]
400 K, 6978.6 kPa	243.19 kg/m3 and 243.192 kg/m3
400 K, 6978.7 kPa	243.193 kg/m3 and 243.189 kg/m3 and 243.196 kg/m3
400 K, 6978.8 kPa	243.19 kg/m3
400 K, 6978.9 kPa	243.193 kg/m3
400 K, 7736.9 kPa	280.444 kg/m3 and 280.447 kg/m3
400 K, 7737 kPa	280.444 kg/m3
400 K, 7737.1 kPa	280.449 kg/m3 and 280.444 kg/m3
400 K, 7737.2 kPa	280.444 kg/m3
400 K, 7737.3 kPa	280.449 kg/m3 and 280.45 kg/m3
400 K, 7912.9 kPa	286.854 kg/m3
400 K, 7913.2 kPa	286.868 kg/m3 and 286.866 kg/m3 and 286.857 kg/m3
400 K, 7913.4 kPa	286.864 kg/m3
400 K, 10112 kPa	336.235 kg/m3 [middle of 5 runs]

— the NIST ThermoML archive (doi:10.1021/je900124n)
